Laboratory results as given in patent US9527803B2, “Crystal form VII of agomelatine, preparation method and use thereof and pharmaceutical composition containing same” (LES LABORATOIRES SERVIER, priority 2011, dated 2016).
In brackets after ≈: the same amount, converted by molar mass. Like-named read-outs stand apart in the source and are kept apart here.

Assays:
Assay type in all cases: physicochemical
[1] = Storage stability of crystalline forms at 40° C. for 20 days, purity and content by HPLC; conditions: for Content: external standard method; for Purity: internal standard method
Procedure: Crystalline forms II, III, VI and VII (obtained through embodiment 3) are each placed in thermostatic containers at a temperature of 40° C. and stored for 20 days, with the stability of these crystalline samples being studied using the method of High Performance Liquid Chromatography.
1. Purity Measurement of the Sample
Chromatographic conditions: Octadecyl silane chemically bonded silica is used as packing; a mixed solution of 10 mmol/L phosphate buffer (adjusted to pH 7.0 with sodium hydroxide) and acetonitrile in the ratio 2:7 by volume acts as the mobile phase; column temperature 40° C.; and detection wavelength 220 nm. Purity is measured using an internal standard method.
In the mobile phase, crystalline forms II, III, VI and VII are distributed into 1 mg/mL solutions, 10 μL of each of which are then passed into a liquid chromatograph, with their chromatograms being recorded.
The reference sample purity measurement method was used, with measurements being made using an external standard method, the results are shown in Table I.

[2] = Measurement of water solubility (HPLC, external standard method)
Source text: 3. Measurement of Water Solubility
The HPLC method was used to determine water solubility, with measurements being made using an external standard method.

[3] = Determination of crystalline stability (pharmacopoeia stability assessment method); set-up: key: ✓: stable; x: unstable; conditions: for Crystalline stability, influencing factor: high temperature / Crystalline stability, influencing factor: high humidity / Crystalline stability, influencing factor: illumination: exposed for 10 days; for Crystalline stability, influencing factor: high temperature: 60° C.; for Crystalline stability, influencing factor: high humidity: 92.5% RH; for Crystalline stability, influencing factor: high humidity / Crystalline stability, long term testing (6 months) / Crystalline stability, long term testing (9 months) / Crystalline stability, long term testing (12 months): 25° C.; for Crystalline stability, influencing factor: illumination: 4500 lx; for Crystalline stability, accelerated testing: hermetically sealed for 6 months, 40° C., 75% RH; for Crystalline stability, long term testing (6 months) / Crystalline stability, long term testing (9 months) / Crystalline stability, long term testing (12 months): hermetically sealed, 60% RH
Procedure: 4. Determination of Crystalline Stability
Measured using the pharmacopoeia stability assessment method: • 1) Influencing factor testing (exposed for 10 days): high temperature (60° C.), illumination (4500 lx), high humidity (92.5% RH, 25° C.) • 2) Accelerated testing (hermetically sealed for 6 months): temperature 40° C., humidity 75% RH • 3) Long term testing (hermetically sealed for 12 months): temperature 25° C., humidity 60% RH

[4] = After storage in thermostatically controlled containers at 40° C. for 20 days

SMILES	Content [1, 4] [%]	Purity [1, 4] [%]	Content ([1]; Before storage) [%]	Purity ([1]; Before storage) [%]	solubility [2] [µg/mL]	Crystalline stability, influencing factor: high temperature [3]	Crystalline stability, influencing factor: high humidity [3]	Crystalline stability, influencing factor: illumination [3]	Crystalline stability, accelerated testing [3]	Crystalline stability, long term testing (6 months) [3]	Crystalline stability, long term testing (9 months) [3]	Crystalline stability, long term testing (12 months) [3]	solubility ([2]; read-out: Solubility) [µg/mL]
COc1ccc2cccc(CCNC(C)=O)c2c1 [Crystalline form II, N-[2-(7-methoxy-1-naphthyl)ethyl]acetamide]	99.6	99.3	99.5	99.7	301 (≈ 1240 µM)	✓*	✓	✓	✓	✓	✓	✓	–
COc1ccc2cccc(CCNC(C)=O)c2c1 [Crystalline form III, N-[2-(7-methoxy-1-naphthyl)ethyl]acetamide]	99.4	99.3	99.5	99.9	–	–	–	–	–	–	–	–	–
COc1ccc2cccc(CCNC(C)=O)c2c1 [Crystalline form VI, N-[2-(7-methoxy-1-naphthyl)ethyl]acetamide]	99.1	99.6	99.3	99.7	–	x*	✓	✓	✓	✓	✓	x	–
COc1ccc2cccc(CCNC(C)=O)c2c1 [Crystalline form VII, N-[2-(7-methoxy-1-naphthyl)ethyl]acetamide]	99.6	99.7	99.8	99.8	–	✓	✓	✓	✓	✓	✓	✓	330 (≈ 1360 µM)
